Data published in US20250263370A1 (Tay Therapeutics Limited, priority 2022, published 2025).

How the values were obtained:
BRD4 BD1 = BRD4 BD1 (Homo sapiens (Human), UniProt O60885); assay: NanoBRET bromodomain assay, NanoLuc-BRD4-BD1 fusion in HEK293 cells; format: cell-based; conditions: top concentration 10 μM
Method: HEK293 cells were transfected using NanoLuc-BRD4-BD1 or NanoLuc-BRD4-BD2 fusion vectors and incubated at 37° C. in an atmosphere of 5% CO2 for 20-24 hours. The transfected cells were then dispensed into 96-well plates using 90 μl cell suspension per well containing 2×10^5 cells/mL in Opti-MEM and 1× final concentration of tracer. 90 μL per well of cell suspension without tracer was also dispensed into at least 3 wells as “No tracer control samples” for background correction. Serially diluted test compounds were prepared at 1000× concentration in DMSO and further diluted to 10× concentration in Opti-MEM. […] Plates were then incubated at 37° C. +5% 002 incubator for 2 hours. […] Donor emission (450 nm) and acceptor emission (610 nm) were measured using PHERAstar (BMG LabTech). For data analysis, the raw BRET ratio was generated and converted to milliBRET units with background correction using the formula: [(Acceptorsample/Donorsample−(Acceptorno tracer control/Donorno tracer control)]×1000. The mBU data was plotted as a function of compound concentration and IC50s for BRET assay were determined by nonlinear regression analysis of concentration response curves using the Collaborative Drug Discovery Vault software. The fold-selectivity was calculated by dividing the IC50 for BRD4 BD1 by the IC50 for BRD4 BD2.

[1] = Intrinsic clearance in liver microsomes, rat; format: in vitro ADME; conditions: rat, liver microsomes, pH 7.4, rat liver microsomes, Method 1; read-out: Half-Life (T1/2) (min), Rat
Method in brief: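 Compound at 1 μM (0.1–1% DMSO) incubated at 37 °C with mouse or rat liver microsomes (0.5 mg/mL protein) and 1 mM NADPH in PBS pH 7.4; samples taken up to 60 min and quenched in cold acetonitrile. LC-MS/MS of percent remaining gave half-life and CLint; no-NADPH controls run.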

[2] = Plasma stability assay, mouse plasma; format: in vitro ADME; conditions: Method 1 (5 μM)
Method: From stock solution of compound in 10 mM DMSO, a working solution of 1 mM is prepared by diluting the compound in DMSO. To 398 μL of plasma pre-warmed at 37° C. for 15 minutes), 2 μL of working solution of compound is added, resulting in a final concentration of 5 μM (0.5% DMSO) for the compound. The sample is then incubated at 37° C. Aliquot is withdrawn at specified time-points (0, 15, 30, 60 and 120 mins). The reaction is stopped by addition of 450 μL cold acetonitrile containing internal standard (IS). […] Aliquots of the supernatant is analysed using LC-MS/MS. The percent remaining of the compound at each time point is calculated with respect to the control sample (0 min time-point).
A working solution of compound (500 μM) is prepared in DMSO (100%). To 735 μL of plasma, 15 μL of working solution of compound is added—resulting in a final concentration of 10 μM (2% DMSO) for the compound. The sample is then incubated at 37° C. Aliquot is withdrawn at time-points—0, 15, 30, 60, 90 and 120 mins. The reaction is stopped by using chilled acetonitrile containing internal standard (IS). The samples are centrifuged and the supernatants analyzed using LC-MS/MS. The percent remaining of the compound at each time point is calculated with respect to the control sample (0 min time-point).

For `CNC(=O)c1[nH]c(C(=O)NC2CCC2)cc1O[C@@H](C)c1ccccc1` (stereo in doubt) [Example 101, N^5-cyclobutyl-N^2-methyl-3-(1-phenylethoxy)-1H-pyrrole-2,5-dicarboxamide], the IC50 (BRD4 BD1) was no less than 10 µM, the half-life at 1 μM [1] was 58 min and the “Plasma Stability (% remaining at 120 minutes), Mouse” value [2] was greater than 99%.
